For series [1], the target named is T1, Cathepsin B (Homo sapiens, UniProt P07858).
T1 construct: Reaction Biology Corp (screening service)
Description: Protease inhibition profiling (Reaction Biology Corp): Cathepsin B. It is filed as biochemical.

In series [2] the target is T2, Cathepsin S (Homo sapiens, UniProt P25774).
T2 construct: Reaction Biology Corp (screening service)
Description: Protease inhibition profiling (Reaction Biology Corp): Cathepsin S. Type of series: biochemical.

Series [3] deals with EhCP1. Conditions: cited from earlier work.
In series [4] the test system is T. cruzi CA-I/72 infected C3H mice. The series is described as follows: Murine model of acute Chagas' disease. It is filed as in vivo, mouse. On the set-up: key to Histopathology, Heart / Histopathology, Liver / Histopathology, Spleen / Histopathology, Colon: I/I: Inflammation and infiltration; +10A: Numerous nests of T. cruzi amastigotes; +A: 1-3 nests of T. cruzi amastigotes; Negative. The procedure:
Three to four week old female C3H mice weighing ca. 20 g were used. The animals were separated into five lots of 5 mice per cage and infected with 10^6 tissue-culture derived trypomastigotes of the myotropic T. cruzi CA-I/72 cloned stock. The mice were treated with 100 mg compound/kg of body weight in 100 µL of solution (30–40% DMSO: 60–70% sterile distilled water) intraperitoneally twice a day. Treatment was initiated 12 h post infection and continued until cure, death of the animals, or for a total of 20 days. […] Parasitemias was determined at the end of the experiment when animals were euthanized. Tissues processed for histopathology include skeletal muscle, heart, liver, spleen, and colon. Blood (5–50 µL) was used for hemocultures. […] Compounds were considered toxic if life expectancy is lower than untreated controls (negative values). If necessary, PCR of blood and tissues was performed to confirm effectiveness of treatment and/or cure of treated animals. Results were expressed as survival (days) of treated animals.

Series [5] relates to Entamoeba histolytica. The conditions noted are these: human colonic xenograft model; cited from earlier work. On the technique in general: A xenograft is tissue or cells of one species grown in another, often human tumour cells in immunodeficient mice.
Series [6] deals with T. cruzi infection in BESM cells. Description: Dose-response against T. cruzi infection in BESM cells. It is filed as cell-based, Trypanosoma cruzi CA-I/72. The conditions noted are these: Trypanosoma cruzi, 72 h. The procedure:
Monolayers were then infected with 1000 trypomastigotes/well of CA-I/72 T. cruzi for 2 h at 37°C. […] Cultures were then incubated for 72 h at 37°C in a humidified atmosphere with 5% CO2. Cultures were next fixed in 4% fresh paraformaldehyde in PBS, stained with DAPI, and counted under a fluorescence microscope (400×). Mean numbers of parasites per cell (±SE) were calculated as previously reported (n = 3-4 per concentration). Controls consisted of untreated wells and cultures similarly treated with 10 μM […] and 0.1 μM posaconazole.

The target of series [7] is T3, Cruzain (Trypanosoma cruzi, UniProt P25779).
T3 construct: made in house
T3 sequence (P25779 123-337 limits assumed): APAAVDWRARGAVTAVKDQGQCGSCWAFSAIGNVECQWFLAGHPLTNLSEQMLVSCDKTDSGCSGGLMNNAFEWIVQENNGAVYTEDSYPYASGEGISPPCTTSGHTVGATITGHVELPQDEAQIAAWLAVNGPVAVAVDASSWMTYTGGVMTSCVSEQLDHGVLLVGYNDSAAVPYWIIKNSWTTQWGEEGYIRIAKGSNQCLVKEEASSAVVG
Description: Cruzain enzyme assay (acetate buffer pH 5.5, Z-Phe-Arg-AMC). It is filed as biochemical. Conditions: 100 mM sodium acetate pH 5.5, 5 mM DTT. The procedure:
Cruzain[27],[28], rhodesain [29], and tbcatB [30] were recombinantly expressed as described previously. TbcatB assays were performed as described previously.[31] Cruzain (2 nM) or rhodesain (3 nM) was incubated with 0.5 to 10 µM inhibitor concentration in 100 mM sodium acetate at pH 5.5, containing 5 mM DTT (buffer A) for 5 min at room temperature. Then buffer A containing Z-Phe-Arg-AMC (Bachem, K M = 1 µM) was added to enzyme inhibitor to give 20 µM substrate concentration in 200 µL, and the increase in fluorescence (excitation at 355 nm and emission at 460 nm) was followed with an automated microtiter plate spectrofluorometer (Molecular Devices, Flex station). Inhibitor stock solutions were prepared at 20 mM in DMSO, and serial dilutions were made in DMSO (0.7% DMSO in assay). Controls were performed using enzyme alone and enzyme with DMSO. IC50 values were determined graphically using inhibitor concentrations in the linear portion of a plot of inhibition versus log[I] […]
Inhibitor dilutions which produce simple exponential progress curves over a wide range of k obs, were used to determine kinetic parameters. The value of k obs, the rate constant for loss of enzyme activity, was determined from an equation for pseudo first order dynamics using Prism 4.0 (GraphPad). When k obs varied linearly with inhibitor concentration, k ass was determined by linear regression analysis. […]

Series [8] can be described thus: Pharmacokinetic study (SRI international). Conditions: in vivo. From the text: (§1) In this study, we have identified WRR-483, as an effective agent to treat acute Chagas' disease in a murine model. […] The crystal structure of WRR-483 complexed to cruzain was solved and established the binding mode of the inhibitor to the enzyme. This structure was highlighted by the formation of a salt bridge between the guanidine moiety of the inhibitor and Glu208, but in a different conformation when compared to another structure of cruzain bound to a different arginine-containing inhibitor. […] The no observed adverse effect level (NOAEL) is higher than 100 mg/kg. […] Further studies to understand the precise mechanism of trypanocidal action of WRR-483 and design of analogs with improved bioavailability are currently underway.

The target in series [9] is T4, Cathepsin L (Homo sapiens, UniProt P07711).
T4 construct: Reaction Biology Corp (screening service)
T4 sequence (P07711 114-333, species assumed): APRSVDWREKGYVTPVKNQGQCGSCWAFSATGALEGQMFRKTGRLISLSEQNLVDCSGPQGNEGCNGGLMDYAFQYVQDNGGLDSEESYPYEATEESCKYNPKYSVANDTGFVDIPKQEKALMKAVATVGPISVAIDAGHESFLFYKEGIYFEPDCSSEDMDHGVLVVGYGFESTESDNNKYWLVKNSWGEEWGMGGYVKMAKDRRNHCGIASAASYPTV
Description: Protease inhibition profiling (Reaction Biology Corp): Cathepsin L. Type of series: biochemical.

In series [10] the target is T5, Rhodesain (Trypanosoma brucei rhodesiense, UniProt Q95PM0).
T5 construct: made in house
T5 sequence (Q95PM0 entry or part of it): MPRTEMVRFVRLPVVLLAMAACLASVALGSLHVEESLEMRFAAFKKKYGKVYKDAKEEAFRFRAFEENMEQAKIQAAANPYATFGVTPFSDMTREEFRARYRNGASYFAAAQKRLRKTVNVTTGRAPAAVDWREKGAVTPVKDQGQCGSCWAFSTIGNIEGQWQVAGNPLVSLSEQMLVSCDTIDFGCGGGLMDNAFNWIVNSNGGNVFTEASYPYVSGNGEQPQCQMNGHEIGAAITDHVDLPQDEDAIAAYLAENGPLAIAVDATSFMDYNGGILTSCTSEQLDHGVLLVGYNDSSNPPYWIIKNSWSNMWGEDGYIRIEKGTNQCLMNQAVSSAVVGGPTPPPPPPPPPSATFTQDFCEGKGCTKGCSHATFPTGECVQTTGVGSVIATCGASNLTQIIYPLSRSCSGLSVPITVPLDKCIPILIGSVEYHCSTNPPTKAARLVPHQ
Description: Rhodesain enzyme assay (acetate buffer pH 5.5, Z-Phe-Arg-AMC). It is filed as biochemical, T. brucei. The procedure:
Cruzain[27],[28], rhodesain [29], and tbcatB [30] were recombinantly expressed as described previously. TbcatB assays were performed as described previously.[31] Cruzain (2 nM) or rhodesain (3 nM) was incubated with 0.5 to 10 µM inhibitor concentration in 100 mM sodium acetate at pH 5.5, containing 5 mM DTT (buffer A) for 5 min at room temperature. Then buffer A containing Z-Phe-Arg-AMC (Bachem, K M = 1 µM) was added to enzyme inhibitor to give 20 µM substrate concentration in 200 µL, and the increase in fluorescence (excitation at 355 nm and emission at 460 nm) was followed with an automated microtiter plate spectrofluorometer (Molecular Devices, Flex station). Inhibitor stock solutions were prepared at 20 mM in DMSO, and serial dilutions were made in DMSO (0.7% DMSO in assay). Controls were performed using enzyme alone and enzyme with DMSO. IC50 values were determined graphically using inhibitor concentrations in the linear portion of a plot of inhibition versus log[I] (seven concentrations tested with at least two in the linear range).
Inhibitor dilutions which produce simple exponential progress curves over a wide range of k obs, were used to determine kinetic parameters. The value of k obs, the rate constant for loss of enzyme activity, was determined from an equation for pseudo first order dynamics using Prism 4.0 (GraphPad). When k obs varied linearly with inhibitor concentration, k ass was determined by linear regression analysis. If the variation was hyperbolic, indicating saturation inhibition kinetics, k inact and K i were determined from an equation describing a two-step irreversible inhibitor mechanism [k obs = k inact [I]o/([I]o+Ki* (1+[S]o/K M))] and non-linear regression analysis Prism 4.0.[32] All values were corrected for substrate concentration.

In series [11] the target is T6, Cathepsin V (Homo sapiens, UniProt O60911).
T6 construct: Reaction Biology Corp (screening service)
T6 sequence (O60911 114-334, species assumed): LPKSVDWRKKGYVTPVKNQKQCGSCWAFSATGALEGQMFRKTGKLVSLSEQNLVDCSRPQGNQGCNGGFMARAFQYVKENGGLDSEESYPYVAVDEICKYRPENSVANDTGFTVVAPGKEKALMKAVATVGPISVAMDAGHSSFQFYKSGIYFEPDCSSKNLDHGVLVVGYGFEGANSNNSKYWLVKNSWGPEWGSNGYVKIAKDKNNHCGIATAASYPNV
Description: Protease inhibition profiling (Reaction Biology Corp): Cathepsin V. Type of series: biochemical. The conditions noted are these: read-out: IC50, Cathepsin V.

The nature of series [12]: Toxicology study (SRI international). Conditions: in vivo; read-out: no observed adverse effect level (NOAEL).
From the text: as §1

Setting [13] is: individual infected mice, 100 mg/kg ip.
[14] abbreviates: individual infected mice, 100 mg/kg ip, 100 mg/kg.

Values joined by “and” are separate entries in the source; they are usually repeats but may differ in a detail not shown here. Equal entries are not always repeated. “Also recorded” adds a separate entry of the source. A value given as a limit tells only on which side of the number the result lay.

T2 sequence (P25774 115-331, species assumed): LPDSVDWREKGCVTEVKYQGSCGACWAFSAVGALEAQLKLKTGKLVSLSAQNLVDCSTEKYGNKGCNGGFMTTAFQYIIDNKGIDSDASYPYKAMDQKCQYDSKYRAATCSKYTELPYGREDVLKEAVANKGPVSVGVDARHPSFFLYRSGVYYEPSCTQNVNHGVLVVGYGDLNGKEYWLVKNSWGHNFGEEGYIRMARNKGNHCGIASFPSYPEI

The IC50 is the concentration at which inhibition is half-maximal. A word on the EC50: it is the concentration giving half of the maximal effect. For orientation: Vd means the apparent volume that relates the amount in the body to the concentration in plasma or blood. As a reminder, the clearance is the rate of elimination divided by the concentration. In general, half-life refers to the time needed for the level to fall by half in the phase considered. The term bioavailability denotes the share of a dose that reaches the circulation, judged against a reference dose that is usually intravenous. A word on the NOAEL: it is the highest tested level that showed no adverse finding. The molecule `CN1CCN(C(=O)N[C@@H](CCCNC(=N)N)C(=O)N[C@H](/C=C/S(=O)(=O)c2ccccc2)CCc2ccccc2)CC1` [WRR-483] gave an IC50 in series [1] of 3.9 ± 0.1 nM. In addition, half-maximal inhibition in series [2] (IC50) required 1.4 ± 0.01 nM. The “inhibition of EhCP1” value in series [3] is reported as “potent inhibitor”. Further, the “T. cruzi infected mouse survival” value in [4] (100 mg inhibitor/kg body weight in two daily doses, intraperitoneally, untreated control 21 days) came to 110 days. Besides, the “survival of the acute infection” value in [4] (10^6 trypomastigotes CA-I/72, untreated controls died within 21–60 days) was “survived the acute infection”. Besides, in series [4] (setting [13]), the “Histopathology, Colon” value was “N”; the “Histopathology, Liver” value is given as “N”; the “Histopathology, Spleen” value is recorded as “N”. In addition, in [4] (setting [14]), the “Histopathology, Heart” value was “N and Mild i/i”; the “Histopathology, Sk. muscle” value was “Moderate i/i; also recorded: +AIntense i/i”. Also, in [5], the “reduction of amebic invasion” value is recorded as 95%. In addition, a half-maximal response in series [6] (EC50) required 200 nM. Further, the “k obs/[I] at 1 µM, Cruzain” value in [7] is 4,800 s^-1 M^-1 and 4,800±480 s^-1 M^-1. For the same molecule, in [8] (10 mg dose iv), the Vd was found to be 15.1 L/kg, the clearance came out at 27.5 mL/min/kg and the half-life was 6.4 h. Moreover, the bioavailability in series [8] (oral, read-out: oral bioavailability %F) is less than 1%. In series [9], this molecule yielded an IC50 of 53 ± 4 nM. For the same molecule, the “k obs/[I] at 1 µM, Rhodesain” value in series [10] (100 mM sodium acetate pH 5.5, 5 mM DTT) is “No inhibition”. In addition, the inhibition of rhodesain result in [10] (even at 10 µM concentration) is given as “no inhibition”. Also, the IC50 in series [11] worked out at 335 ± 4 nM. In addition, the NOAEL in series [12] is more than 100 mg/kg.

The values above are taken from PMC2939063, “In Vitro and In Vivo Studies of the Trypanocidal Properties of WRR-483 against Trypanosoma cruzi” (PLoS Neglected Tropical Diseases, 2010).
